Experimental data from publication PMC12022903, “Evaluation of drug-drug interaction between Suraxavir Marboxil (GP681) and itraconazole, and assessment of the impact of gene polymorphism” (Frontiers in Pharmacology, 2025).
Values joined by “and” are separate entries in the source; they are usually repeats but may differ in a detail not shown here. Equal entries are not always repeated.

Assay: Pharmacokinetic parameters of GP1707D07 (HPLC-MS/MS, non-compartmental) in the GP681-itraconazole drug-drug interaction study
Format: in vivo, healthy Chinese subjects
Description: This single-center, open-label, self-controlled, fixed-sequence study, sponsored by Qingfeng Pharmaceutical Group Co., Ltd., was conducted at a single clinical research site in the China–Japan Friendship Hospital (Beijing, China). Each subject received the following treatment: Suraxavir Marboxil (GP681) 20 mg in the fasted state on day 1 and day 26. Itraconazole capsules (Sporanox®: Xi’an Yangsen Pharmaceutical Co., Ltd., China) 0.2 g twice daily (BID, bis in die) on day 22. Itraconazole 0.2 g daily from day 23 to day 36 [including day 26, when itraconazole was co-administrated with Suraxavir Marboxil (GP681)]. The washout period is 21 days (Figure 2). It should be noted that in the following sections, when discussing the PK profile, this study was divided into Period 1 (Suraxavir Marboxil (GP681) monotherapy, from day −1 to day 12), and Period 2 (Suraxavir Marboxil (GP681)-itraconazole co-administration, from day 21 to day 36). When discussion the safety profile, this study was divided into Stage 1 (Suraxavir Marboxil (GP681) monotherapy stage, from day 1 to day 21), Stage 2 (itraconazole monotherapy stage, from day 22 to day 25), and Stage 3 (Suraxavir Marboxil (GP681)-itraconazole co-administration stage, from d 26 to d 36).
Blood samples were collected at the following time points: pre–dose, 0.5, 1, 2, 3, 4, 5, 6, 8, 12, 24, 36, 48, 72, 120, 168, and 264 h post-dose on day 1 and day 26. In addition, a blood sample were collected before dosing on day 1 for genetic polymorphism assessment.
A validated high-performance liquid chromatography-tandem mass spectrometry (HPLC-MS/MS) method was used to determine plasma concentrations of Suraxavir Marboxil (GP681) and its active metabolite GP1707D07 at different times, with the quantification range of 0.3/0.3–300/300 ng/mL for Suraxavir Marboxil (GP681) and GP1707D07. The lower limit of quantification (LLOQ) for both compounds was 0.300 ng/mL. Phoenix® WinNonlin® 8.3 was used to estimate and analyze the pharmacokinetic parameters of non-compartmental model from plasma concentration data. Pharmacokinetic parameters included: maximum plasma concentration (Cmax), area under the plasma concentration-time curve extrapolated from time zero to infinity (AUC0- ∞ ), time to Cmax (Tmax), half-life (t1/2), λz, AUC_%Extrap, Vz/F, CL/F, and mean residence time (MRT).
Statistical analysis was performed using SAS (version 9.4 or above) software programming. Pharmacokinetic concentration analysis was based on Pharmacokinetic Analysis Concentration Set (PKCS). Individual and mean concentrations (mean ± SD) were plotted against planned blood sampling time points for the analyte on linear and semi-log scales. Pharmacokinetic parameter analysis was based on Pharmacokinetic Analysis Parameter Set (PKPS). Drug interaction analysis was based on Drug Interaction Set (DIS). The geometric mean ratios and their 90% confidence intervals of pharmacokinetic parameters Cmax, AUC0-t, and AUC0- ∞ under Suraxavir Marboxil (GP681) single dose and Suraxavir Marboxil (GP681)-itraconazole co-administration conditions were calculated after natural logarithm transformation, using a linear mixed effects model with subjects as random effects and treatment (combined/single) as fixed effects.
1.3 Pharmacokinetic Sample Collection and Processing: Pharmacokinetic Analysis: Approximately 4 mL of blood is collected each time into a tube containing sodium fluoride/potassium oxalate as an anticoagulant. The tube is then placed upright in an ice-water bath. The plasma samples are separated by centrifugation for the detection of GP681/GP1707D07 blood drug concentrations. Both sample collection and processing are conducted under white light conditions. […]

[1] = GP681 + itraconazole vs GP681 alone, N=12
[2] = Period 1, GP681 20 mg monotherapy, geometric mean, N=12
[3] = Period 1, GP681 20 mg monotherapy, individual subjects
[4] = Period 1, GP681 20 mg monotherapy, mean, N=12
[5] = Period 1, GP681 20 mg monotherapy, median, N=12
[6] = Period 2, GP681 20 mg + itraconazole, geometric mean, N=12

For `O=C1c2c(O)c(=O)ccn2N([C@@H]2c3ccccc3SCc3c2ccc(F)c3F)[C@@H]2COC3(CC3)CN12` [GP1707D07], the “AUC0-t: point estimate of geometric mean ratio (90% CI) Period 2/Period 1” value [1] was 215.2% and 215.2 (170.7, 271.3) %, the “AUC0-∞: point estimate of geometric mean ratio (90% CI) Period 2/Period 1” value [1] was 255.4% and 255.4 (204.5, 319.0) % and the “Cmax: point estimate of geometric mean ratio (90% CI) Period 2/Period 1” value [1] was 137.7% and 137.7 (98.5, 192.3) %. For the same compound, the AUC0-t [2] was 955.800 ng·h/mL, the AUC_%Extrap [2] was 7.117% and the CL/F [2] was 19.255 L/h. The Cmax [2] was 16.0 ng/mL and 16.0070 ng/mL, the MRT0-t [2] was 66.790 h and the “MRT0-∞” value [2] was 87.2 h and 87.218 h. The Tmax [2] was 3.7 h, the Vz/F [2] was 1799.125 L and the t1/2 [2] was 64.8 h and 64.764 h. The λz [2] was 0.0107 h⁻¹, the AUC0-t [3] was 1770.18 ng·h/mL and 1069.77 ng·h/mL and 1199.27 ng·h/mL and 602.25 ng·h/mL and 1158.79 ng·h/mL and 728.18 ng·h/mL and 1487.97 ng·h/mL and 759.35 ng·h/mL and 1247.30 ng·h/mL and 1364.54 ng·h/mL and 354.04 ng·h/mL and 739.81 ng·h/mL and 1069.8 ng·h/mL and 1199.3 ng·h/mL and 602.3 ng·h/mL and 1158.8 ng·h/mL and 728.2 ng·h/mL and 1488.0 ng·h/mL and 759.4 ng·h/mL and 1364.5 ng·h/mL and 354.0 ng·h/mL and 739.8 ng·h/mL and 1770.2 ng·h/mL and the “AUC0-∞” value [3] was 1874.52 ng·h/mL and 1171.14 ng·h/mL and 1273.75 ng·h/mL and 689.41 ng·h/mL and 1290.37 ng·h/mL and 801.51 ng·h/mL and 1650.91 ng·h/mL and 781.02 ng·h/mL and 1310.49 ng·h/mL and 1409.63 ng·h/mL and 407.77 ng·h/mL and 814.16 ng·h/mL. For the same compound, the AUC_%Extrap [3] was 5.57% and 8.66% and 5.85% and 12.64% and 10.20% and 9.15% and 9.87% and 2.78% and 4.82% and 3.20% and 13.18% and 9.13%, the CL/F [3] was 10.67 L/h and 17.08 L/h and 15.70 L/h and 29.01 L/h and 15.50 L/h and 24.95 L/h and 12.11 L/h and 25.61 L/h and 15.26 L/h and 14.19 L/h and 49.05 L/h and 24.57 L/h and the Cmax [3] was 44.439 ng/mL and 17.988 ng/mL and 26.933 ng/mL and 7.24 ng/mL and 15.539 ng/mL and 12.018 ng/mL and 25.999 ng/mL and 16.03 ng/mL and 20.468 ng/mL and 30.14 ng/mL and 3.382 ng/mL and 11.179 ng/mL and 18.0 ng/mL and 26.9 ng/mL and 7.2 ng/mL and 15.5 ng/mL and 12.0 ng/mL and 26.0 ng/mL and 16.0 ng/mL and 20.5 ng/mL and 30.1 ng/mL and 3.4 ng/mL and 11.2 ng/mL and 44.4 ng/mL. The MRT0-t [3] was 61.44 h and 71.79 h and 62.61 h and 74.73 h and 74.78 h and 69.62 h and 63.68 h and 57.28 h and 63.69 h and 56.39 h and 80.89 h and 69.22 h, the “MRT0-∞” value [3] was 75.90 h and 95.15 h and 78.26 h and 108.96 h and 102.37 h and 94.31 h and 93.23 h and 64.34 h and 75.97 h and 64.54 h and 117.49 h and 94.32 h and the Tmax [3] was 3 h and 6 h and 2 h and 5 h and 4 h. The Vz/F [3] was 857.04 L and 1725.92 L and 1402.22 L and 3031.63 L and 1619.87 L and 2462.69 L and 1483.10 L and 1801.98 L and 1183.17 L and 996.59 L and 5767.31 L and 2522.77 L, the t1/2 [3] was 55.68 h and 70.05 h and 61.90 h and 72.43 h and 72.44 h and 68.41 h and 84.86 h and 48.78 h and 53.74 h and 48.69 h and 81.51 h and 71.18 h and the λz [3] was 0.012 h⁻¹ and 0.010 h⁻¹ and 0.011 h⁻¹ and 0.008 h⁻¹ and 0.014 h⁻¹ and 0.013 h⁻¹ and 0.009 h⁻¹. For the same compound, the AUC_%Extrap [4] was 7.9 (3.4) % and 7.919%, the CL/F [4] was 21.1 (10.6) L/h and 21.141 L/h and the Cmax [4] was 19.3 (11.2) ng/mL and 19.2796 ng/mL. The MRT0-t [4] was 67.2 (7.5) h and 67.176 h, the “MRT0-∞” value [4] was 88.7 (17.0) h and 88.737 h and the Tmax [4] was 4.0 h. For the same compound, the Vz/F [4] was 2071.2 (1,333.0) L and 2071.190 L, the t1/2 [4] was 65.8 (12.1) h and 65.805 h and the λz [4] was 0.011 (0.0021) h-1 and 0.0109 h-1. For the same compound, the Tmax (Period 1, GP681 20 mg monotherapy, median (range), N=12) was 4.0 (2.0–6.0) h, the AUC0-t [5] was 1114.281 ng·h/mL and the “AUC0-∞” value [5] was 1222.445 ng·h/mL. The AUC_%Extrap [5] was 8.894%, the CL/F [5] was 16.390 L/h and the Cmax [5] was 17.0090 ng/mL. For the same compound, the MRT0-t [5] was 66.454 h, the “MRT0-∞” value [5] was 93.771 h and the Vz/F [5] was 1672.897 L. The t1/2 [5] was 69.231 h, the λz [5] was 0.0100 h⁻¹ and the AUC0-t [6] was 2057.0 ng·h/mL and 2057.031 ng·h/mL. It also gave an AUC_%Extrap [6] of 21.847% and a CL/F [6] of 7.539 L/h.
